According to paper PMC6921407, “Novel coumarins active against Trypanosoma cruzi and toxicity assessment using the animal model Caenorhabditis elegans” (BMC Pharmacology & Toxicology, 2019):
Where “and” joins values, the source holds several entries; their conditions need not be identical. Equal values may be shown once. Read-outs that look alike come from different tables or passages of the source.

How the values were obtained:
[1] = tested on: Trypanosoma cruzi epimastigotes (Tulahuen 2 strain); test: Anti-Trypanosoma cruzi activity: growth inhibition of epimastigotes (absorbance at 600 nm, day 5); format: cell-based; details: T. cruzi epimastigotes; for GI (%) / percentage of growth inhibition (PGI): test concentration not given
Procedure: Trypanosoma cruzi epimastigotes (Tulahuen 2 strain) were grown at 28 °C in an axenic milieu (BHI-Tryptose) supplemented with 5% fetal bovine serum (FBS), as previously described. Cells from a 10-day-old culture (stationary phase) were inoculated into 50 mL of fresh culture milieu to give an initial concentration of 1 × 10^6 cells per mL. Cell growth was followed by measuring the absorbance of the culture at 600 nm every day. Before inoculation, the milieu was supplemented with a given amount of the coumarin from a freshly prepared stock solution in DMSO (25 mM). The final concentration of DMSO in the culture medium never exceeded 0.4%, and the control was run in the presence of 0.4% DMSO and in the absence of drugs. […] Nifurtimox (Nfx) was used as the reference trypanocidal drug. The percentage of growth inhibition (PGI) was calculated as follows: PGI (%) = {1 - [(Ap - A0p) / (Ac - A0c)]} × 100, where Ap = […] of the culture containing the studied compound at day 5; […] = […] of the culture containing the studied compound just after addition of the inocula (day 0); Ac = […] of the culture in the absence of the studied compound (control) at day 5; […] = […] in the absence of the studied compound at day 0. […] At day 5, the absorbance of the culture was measured and related to the control.

[2] = tested on: Caenorhabditis elegans N2 (wild type); details: L1 worms exposed 30 min, survival counted 24 hours after exposure
Procedure: The nematode strain used was N2 (wild type), originally obtained from the Caenorhabditis Genetics Center (University of Minnesota, Twin Cities, MN, USA), which was maintained on nematode growth medium (NGM) plates seeded with Escherichia coli OP50 at 20°C. Synchronization of C. elegans cultures at the first larval stage (L1) was achieved by washing off the gravid nematodes from the plates into the centrifuge tubes, which were lysed with a bleaching mixture (1% NaOCl; 0.25 M NaOH), followed by flotation on a sucrose solution 30% (m/v) to separate the eggs from the dissolved worms and bacterial debris. The eggs were washed with M9 buffer (0.02 M KH2PO4, 0.04 M Na2HPO4, 0.08 M NaCl, and 0.001 M MgSO4) and allowed to hatch overnight (16 hours) in NGM agar plates without bacteria. After 16 hours it was obtained worms at L1 stage. Then, 1.500 L1 worms were exposed for 30 minutes at 20°C, by constant agitation in a rotator, at crescent doses ranging from 25 to 100 mM of coumarins in a 0.5% NaCl liquid media. Stock solutions of coumarins were made in DMSO, therefore worms treated with 0.5% NaCl and 0.5% DMSO were used as controls. After exposure, worms were washed 3 times with 0.5% NaCl to remove the treatments. Finally, worms were transferred to NGM recovery plates inoculated with Escherichia coli (OP50) for posterior assays.
The LD50 of coumarins was determined in C. elegans after exposure. The worms were washed three times with NaCl buffer and placed on OP50-seeded NGM plates. The number of surviving worms on each plate was verified 24 hours after exposure. The lethality data was normalized with the controls and presented as a percentage. All the coumarins were tested in three independent experiments with each concentration tested in two replicates within each experiment.

[3] = tested on: Caenorhabditis elegans N2 (wild type); test: Body area (worm development) of C. elegans after acute exposure; format: in vivo; details: 30 min exposure, measured 48 hours after exposure; tested 25 to 100 mM; ANOVA/Bonferroni
Procedure: For the evaluation of body area, 48 hours after exposure the adult worms (20 nematodes per treatment) were photographed and their body contour was measured. For this, the NGM plates were washed with distilled water and the resulting solution was transferred to a centrifuge tube, where the worm was allowed to settle, separating it from the bacteria in suspension. The process was repeated until the solution became clear. […] The pictures were acquired from 20 worms per treatment, which were manually contoured and measured with AxioVision software LE version 4.8.2.0 for Windows.

[4] = Trypanosoma cruzi, TULAHUEN, 120 h, read-out: IC50

melting point	IC50 [1, 4]	IC50 [1]	concentrations with significant reduction of body area compared with the control [3]	IC50 ([1]; read-out: IC50)	SMILES	GI (%) / percentage of growth inhibition (PGI) [1]	LD50 (DL50) [2]	LD50 (DL50) ([2]; listed as LaSOM 231)
176 to 178 °C	> 25 µM	–	–	–	CCc1ccc2oc(=O)cc(CNc3cc(C)cc(C)c3)c2c1 [11f]	< 44.3%	–	–
192 to 194 °C	> 100 µM	–	–	–	Cc1cc(C)cc(NCc2cc(=O)oc3ccc(Cl)cc23)c1 [9f]	6.1 ± 1.3%	–	–
162 to 164 °C	> 25 µM	–	–	–	O=c1cc(CN2CCS(=O)(=O)CC2)c2cc(Cl)ccc2o1 [9m]	< 59.9%	–	–
179 to 180 °C	> 100 µM	–	–	–	Cc1cc(C)cc(NCc2cc(=O)oc3ccc(C)cc23)c1 [10f]	32.5 ± 0.9%	–	–
163 to 164 °C	> 25 µM	–	–	–	O=c1cc(CN2CCC(c3ccccc3)CC2)c2cc(Cl)ccc2o1 [9n]	< 51.5%	–	–
178 to 179 °C	> 100 µM	–	–	–	Cc1ccc2oc(=O)cc(CNc3ccc(Br)cc3)c2c1 [10d]	< 33.1%	–	–
–	5 ± 1 µM	–	–	–	CC1CS(=O)(=O)CCN1/N=C/c1ccc([N+](=O)[O-])o1 (centres unmarked) [Nifurtimox, reference compound]	–	–	–
171 to 172 °C	> 25 µM	–	–	–	CCc1ccc2oc(=O)cc(CNc3ccc(C)cc3)c2c1 [11b]	< 39.5%	–	–
192 to 194 °C	> 100 µM	–	–	–	COc1ccc(NCc2cc(=O)oc3ccc(Cl)cc23)cc1 [9e]	< 29.3%	–	–
164 to 165 °C	> 100 µM	–	–	–	Cc1ccc2oc(=O)cc(CNc3ccccc3)c2c1 [10a]	38.5 ± 2.6%	–	–
106 to 107 °C	13.2 ± 2.6 µM	–	–	–	Cc1ccc2oc(=O)cc(CN3CCC(c4ccccc4)CC3)c2c1 [10n]	< 62.7%	–	–
201 °C	> 100 µM	–	–	–	Cc1ccc(NCc2cc(=O)oc3ccc(Cl)cc23)cc1 [9b]	< 20.7%	–	–
96 to 98 °C	13.9 ± 2.8 µM	–	–	–	CCc1ccc2oc(=O)cc(CN3CCCCC3)c2c1 [11i]	< 71.4%	–	–
200 to 201 °C	14.2 ± 1.9 µM	–	–	–	CN(Cc1cc(=O)oc2ccc(Cl)cc12)c1ccccc1 [9g]	–	–	–
169 to 170 °C	> 25 µM	–	–	–	COc1ccc(NCc2cc(=O)oc3ccc(C)cc23)cc1 [10e]	53.2 ± 1.3%	–	–
91 to 93 °C	27.7 ± 1.3 µM	–	–	–	CCc1ccc2oc(=O)cc(CNc3ccccc3)c2c1 [11a]	35.7 ± 0.7%	–	–
170 to 172 °C	–	Inactive	–	–	Cc1ccc2oc(=O)cc(CN3CCS(=O)(=O)CC3)c2c1 [10m]	Inactive	–	–
> 300 °C	–	Inactive	–	–	CCc1ccc2oc(=O)cc(CN3CCNCC3)c2c1 [11j]	Inactive	–	–
–	6.4 ± 1 µM	–	50000 µM	< 10 µM	CCc1ccc2oc(=O)cc(CN(C)c3ccc(Cl)cc3)c2c1 [11h]	–	73.4 mM and 70.81 mM	–
181 to 182 °C	> 100 µM	–	–	–	O=c1cc(CN2CCCCC2)c2cc(Cl)ccc2o1 [9i]	15.9 ± 0.9%	–	–
177 to 178 °C	> 100 µM	–	–	–	O=c1cc(CN2CCOCC2)c2cc(Cl)ccc2o1 [9k]	< 9.6%	–	–

melting point	IC50 [1, 4]	IC50 [1]	concentrations with significant reduction of body area compared with the control [3]	IC50 ([1]; read-out: IC50)	SMILES	GI (%) / percentage of growth inhibition (PGI) [1]	LD50 (DL50) [2]	LD50 (DL50) ([2]; listed as LaSOM 231)
188 to 189 °C	> 100 µM	–	–	–	Cc1ccc(NCc2cc(=O)oc3ccc(C)cc23)cc1 [10b]	29.9 ± 0.9%	–	–
184 to 186 °C	35.4 ± 2.1 µM	–	–	–	CCc1ccc2oc(=O)cc(CNc3ccc(Br)cc3)c2c1 [11d]	< 21.9%	–	–
134 to 135 °C	> 10 µM	–	–	–	CCc1ccc2oc(=O)cc(CN3CCSCC3)c2c1 [11l]	72.9 ± 0.4%	–	–
118 to 120 °C	30.3 ± 0.9 µM	–	–	–	CCc1ccc2oc(=O)cc(CN3CCC(c4ccccc4)CC3)c2c1 [11n]	26.7 ± 4.0%	–	–
187 to 188 °C	9.1 ± 1.6 µM	–	–	< 10 µM	O=c1cc(CNc2ccccc2)c2cc(Cl)ccc2o1 [9a]	–	–	–
110 to 113 °C	22.7 ± 3.1 µM	–	–	–	CCc1ccc2oc(=O)cc(CN3CCOCC3)c2c1 [11k]	57.6 ± 3.4%	–	–
205 to 207 °C	> 100 µM	–	–	–	O=c1cc(CNc2ccc(Cl)cc2)c2cc(Cl)ccc2o1 [9c]	< 20.4%	–	–
171 to 173 °C	11.2 ± 1.7 µM	–	–	–	CCc1ccc2oc(=O)cc(CNc3ccc(Cl)cc3)c2c1 [11c]	67.6 ± 2.7%	–	–
–	8.2 ± 2.3 µM	–	–	< 10 µM	CCc1ccc2oc(=O)cc(CN(C)c3ccccc3)c2c1 [11g]	< 78.6%	61.7 mM and 61.50 mM	61.55 mM
152 to 153 °C	> 100 µM	–	–	–	O=c1cc(CN2CCSCC2)c2cc(Cl)ccc2o1 [9l]	29 ± 0.4%	–	–
173 to 174 °C	> 25 µM	–	–	–	Cc1ccc2oc(=O)cc(CN(C)c3ccc(Cl)cc3)c2c1 [10h]	< 59.2%	–	–
231 to 232 °C	> 100 µM	–	–	–	O=c1cc(CNc2ccc(Br)cc2)c2cc(Cl)ccc2o1 [9d]	1.9 ± 0.8%	–	–
175 to 177 °C	> 100 µM	–	–	–	CCc1ccc2oc(=O)cc(CN3CCS(=O)(=O)CC3)c2c1 [11m]	< 10.2%	–	–
–	< 10 µM	–	–	8.9 µM	Cc1ccc2oc(=O)cc(CN(C)c3ccccc3)c2c1 [10g]	–	42.3 mM	–
99 to 100 °C	–	Inactive	–	–	Cc1ccc2oc(=O)cc(CN3CCOCC3)c2c1 [10k]	Inactive	–	–
185 to 186 °C	> 25 µM	–	–	–	CN(Cc1cc(=O)oc2ccc(Cl)cc12)c1ccc(Cl)cc1 [9h]	< 48.4%	–	–
180 to 181 °C	> 100 µM	–	–	–	Cc1ccc2oc(=O)cc(CNc3ccc(Cl)cc3)c2c1 [10c]	18.5 ± 1.8%	–	–
151 to 152 °C	> 25 µM	–	–	–	CCc1ccc2oc(=O)cc(CNc3ccc(OC)cc3)c2c1 [11e]	< 52.5%	–	–
121 to 122 °C	–	Inactive	–	–	Cc1ccc2oc(=O)cc(CN3CCSCC3)c2c1 [10l]	Inactive	–	–
–	> 100 µM	–	–	–	Cc1ccc2oc(=O)cc(CN3CCCCC3)c2c1 [10i]	< 15.9%	–	–

SMILES	melting point	IC50 [1, 4]	IC50 [1]	concentrations with significant reduction of body area compared with the control [3]	IC50 ([1]; read-out: IC50)	GI (%) / percentage of growth inhibition (PGI) [1]	LD50 (DL50) [2]	LD50 (DL50) ([2]; listed as LaSOM 231)
Cc1ccc2oc(=O)cc(CN3CCNCC3)c2c1 [10j]	> 300 °C	–	Inactive	–	–	Inactive	–	–
O=c1cc(CN2CCNCC2)c2cc(Cl)ccc2o1 [9j]	> 300 °C	> 31 µM	–	–	–	< 23.6%	–	–
